According to patent publication US20240315237A1, “METHODS FOR SINGLE CELL ANALYSIS OF GLUCOSE INTERNALIZATION” (ABBOTT DIABETES CARE INC., priority 2023, published 2024):
“And” between values parts separate entries of the source, which are not always exact repeats. Equal values may be shown once. “Also recorded” adds a separate entry of the source.

Tests used:
Type in all cases: cell-based
GLUT1 [1] = target: T1, GLUT1 (Homo sapiens, UniProt P11166); assay: glucose competition study with unlabeled D-glucose (flow cytometry); settings: 20 μM tracer; for mean intensity maintained, % of the mean intensity of the control sample: 100 mM unlabeled D-glucose (5000× tracer), 60 min, 37° C., human RBCs
T1 construct: Adult human RBCs exclusively express the glucose transporter 1 (GLUT1) encoded by the SLC2A1 gene; endogenous in cells; host or cells: human erythrocytes (RBCs) isolated from blood
T1 sequence (P11166 1-492): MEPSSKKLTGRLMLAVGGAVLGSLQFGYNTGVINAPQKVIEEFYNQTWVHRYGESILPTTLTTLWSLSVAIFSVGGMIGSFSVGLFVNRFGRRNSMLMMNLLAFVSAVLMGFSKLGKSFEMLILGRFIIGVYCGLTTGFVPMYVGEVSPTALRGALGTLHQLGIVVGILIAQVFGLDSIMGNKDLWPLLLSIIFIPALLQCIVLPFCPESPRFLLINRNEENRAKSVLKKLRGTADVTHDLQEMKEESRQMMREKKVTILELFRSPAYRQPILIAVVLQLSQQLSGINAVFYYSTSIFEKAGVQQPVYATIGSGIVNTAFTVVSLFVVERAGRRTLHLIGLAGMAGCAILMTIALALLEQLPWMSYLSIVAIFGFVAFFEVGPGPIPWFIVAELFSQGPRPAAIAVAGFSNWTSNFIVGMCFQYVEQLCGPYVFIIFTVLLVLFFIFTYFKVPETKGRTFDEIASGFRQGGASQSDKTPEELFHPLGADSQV
Protocol: (§1) To test the tracer specificity, a competition experiment was first performed on the flow cytometer under identical settings as were used in the membrane integrity experiments above. Aliquots of solutions of RBCs containing KCl solution and 20 μM of a given glucose tracer were incubated for 60 minutes at 37° C. shaker at 400 RPM containing a selected concentration of unlabeled D-glucose (i.e., 0.00, 0.01, 0.50, 1.00, 5.00, 25.00, 50.00 or 100.00 mM). After incubation, cells were washed one time in 125 KCl solution containing the selected concentration of D-glucose and promptly measured on the flow cytometer using the conditions described above. Next, GLUT1-specific transport was further tested by preparing washed RBC solutions as described above and then incubating the RBC solutions with one of the GLUT1 inhibitors on a 37° C. shaker at 400 RPM for one hour of incubation. […] Samples were then spun down, and supernatant was removed and fresh inhibitor/KCl solution was added and inverted. Glucose tracers were then added at working concentrations of 20 μM and incubated for 30 minutes on a 37° C. shaker at 400 RPM. After 30 minutes, cells were quickly spun down again using the protocol described in herein and supernatant was removed and replaced with fresh inhibitor/KCl solution before immediately being placed on the flow cytometer. Each sample was run on the flow cytometer using identical settings described above.

human erythrocytes = assay: single cell 2-NBDG uptake in anchored RBCs (microfluidic perfusion, confocal microscopy)
Protocol: Sample preparation. Human whole blood from an individual donor was drawn into sodium heparin (NaHep) and shipped cold. Samples were received directly from BioIVT LLC and placed into 4° C. refrigeration until prepared for experimentation. Samples removed from refrigeration for experimentation purposes were first inverted for three minutes and then 200 μL were drawn from the collection tubes and placed into a fresh 1.5 mL centrifuge tube containing 1 mL of 125 mM KCl solution. Samples were gently inverted 5-10× and then placed in a 4° C. centrifuge and spun using a modified RBC isolation protocol aimed at reducing clotting of whole blood and deformation of RBCs (Hanson et al., American Journal of Physiology Heart and Circulatory Physiology, 2008. 295(2): p. H786-H793). Centrifugation-based separation of RBCs was performed at 2000 RPM (490×g) for 5 minutes. After centrifugation, supernatant was removed along with buffy coat (white blood cells, etc.) using a pipette and a fresh 1 mL of KCl solution was then added. This process was repeated 3× to isolate RBCs and diminish intracellular glucose.
Samples were then vortexed gently and placed on a 37° C. shaker at 400 RPM for one hour for incubation. Due to the high expression of glycophorin A+B in erythrocytes, it was a simple membrane target for antibody anchoring of cells to the microfluidic imaging surface using the biotin binding Neutravidin™ system.
Microfluidic Perfusion. An ONIX microfluidic perfusion system from CellAsic (Millipore Sigma) was used for flow-based experiments. The system comprises a perfusion pump system, which connects to a PC for multidimensional control of flow rates (converted from applied kPa, i.e., 27.6 kPA=20 μL/hr) and duration. The plates used for experiments herein are model Y04C. This plate system has a #1.5 glass bottom for imaging and contains four separate channels which have an observation region where fluid switching can occur homogenously. Plates were removed from vacuum packaging the day of experimentation and storage PBS was removed using a vacuum system. Each well was then filled with 400 μL of KCl solution and placed on the perfusion system. KCl solution was flowed through each channel and well (except for the waste well #7) at 20 μL/hr for 20 minutes to flush out any storage PBS. Next, one of the wells (#1 for each channel) was filled with 100 μL 0.1 mg/mL Pierce™ biotinylated-bovine serum albumin (B-BSA, Cat #29130, Thermo Scientific) in 125 mM KCl solution and this was then flowed through for 15 minutes total, then allowed to incubate for 15 minutes at room temperature. After the B-BSA was deposited on the glass surface of the channels, a 0.1 mg/mL solution of Neutravidin (Cat #31000, Thermo Scientific) in KCl solution was flowed for 15 minutes at room temperature to build a surface anchoring system for red blood cells.
For uptake measurements, cells incubated with biotinylated-α-glycophorin A+B antibodies were diluted 1:1 in KCl solution within well #8 and perfused using 20 μL/hr in combination with well #5 containing KCl solution only at 20 μL/hr for 10 seconds. Flowed cells were then allowed to incubate with the cell anchoring system described above for three minutes. […] Immediately after this time point, well #2 was stopped, and KCl solution only from well #5 was perfused at 20 μL/hr to wash away tracer (“washout”).
For uptake measurements, the 488 nm laser was configured for excitation to a power level of 0.07% of total laser voltage (i.e., 3.5 μW before the objective) with a pixel dwell time of 0.24 μs. For detection, the detector bandwidth was set to admit wavelengths 520 nm to 560 nm with a master gain of 500 V and digital gain set to 1×. The field of view was 1944 pixels×1944 pixels (or 192.8 μm×192.8 μm) which led to a total frame time of 989.11 ms for a single acquisition. With these settings and using the 40× magnification, the pixel size was ˜0.1 μm×˜0.1 μm.

GLUT1 [2] = target: T1, GLUT1; assay: small molecule GLUT1 inhibition study of tracer uptake (flow cytometry)
Protocol: as §1, with “Each sample was run on the flow cytometer using identical settings described above.” left out

[3] = 5 mM 2-NBDG, all cells, height corrected, FIG. 16B
[4] = normalized to the all donor mean, N=45, FIG. 18

Compound	mean intensity maintained, % of the mean intensity of the control sample (GLUT1 [1]) [%]	time to saturation point of intracellular 2-NBDG intensity (human erythrocytes; 5 mM 2-NBDG, 20 μL/hr, FIG. 11B)	mean intracellular glucose fraction, typical patient with higher fraction (human erythrocytes; 5 mM 2-NBDG, 1802 cells, cell heights ≥2.1 μm, mean±1 SD, FIG. 14B)	mean intracellular glucose fraction, typical patient with lower fraction (human erythrocytes; 5 mM 2-NBDG, 2343 cells, cell heights ≥2.1 μm, mean±1 SD, FIG. 14A)	mean intracellular percentage for this patient blood sample (human erythrocytes; 5 mM 2-NBDG, FIG. 11C) [%]	intracellular glucose percentage, Black patients (human erythrocytes; 5 mM 2-NBDG, FIG. 16A, n=20, mean±1 SD)	intracellular glucose percentage, Caucasian/Hispanic patients (human erythrocytes; 5 mM 2-NBDG, FIG. 16A, n=25, mean±1 SD)	mean (+/−SD) uptake normalized to overall mean, Black ancestry (human erythrocytes; 5 mM 2-NBDG, FIG. 17) [%+/−39%]	mean (+/−SD) uptake normalized to overall mean, White ancestry (human erythrocytes; 5 mM 2-NBDG, FIG. 17) [%+/−36%]	corrected intracellular glucose percentage (HCIG), Black patients (human erythrocytes; [3])	corrected intracellular glucose percentage (HCIG), Caucasian/Hispanic patients (human erythrocytes; [3])	stability of saturating intracellular level (plateau) (human erythrocytes; extended duration measurements, FIGS. 13A-13B)	mean normalized intracellular glucose, Black sub-group (human erythrocytes; [4])	mean normalized intracellular glucose, Hispanic/Caucasian sub-group (human erythrocytes; [4])	competition with unlabeled D-glucose among three tracers (GLUT1 [1]; 0.00-100.00 mM D-glucose, FIG. 9C)	inhibition of tracer uptake by GLUT1 inhibitors, compared with other tracers (GLUT1 [2]; Phloretin, Cytochalasin B, WZB117, STF-31, BAY-876, 20 μM tracer, FIG. 1B)	specificity for the GLUT1 transporter (GLUT1 [2]; human RBCs, inhibitor panel and glucose competition experiments)
6-deoxy-2-[(7-nitro-2,1,3-benzoxadiazol-4-yl)amino]-D-glucose [6-NBDG]	13.8	–	–	–	–	–	–	–	–	–	–	–	–	–	–	–	–
O=C[C@H](Nc1ccc([N+](=O)[O-])c2nonc12)[C@@H](O)[C@H](O)[C@H](O)CO [2-NBDG, 2-deoxy-2-[(7-nitro-2,1,3-benzoxadiazol-4-yl)amino]-D-glucose]	1.4	within several seconds	6.7% and 6.7%±2.3%	4.6% and 4.6%±1.6%	4.9	0.057±0.018	0.044±0.018	118	86	0.060±0.020	0.044±0.018	stable for several hours	1.18	0.86	highest competition	most inhibition; also recorded: consistently the most inhibited	highest specificity; also recorded: GLUT1 specific
D-Glucose-Silicon rhodamine [D-glucose-SIR]	41.9	–	–	–	–	–	–	–	–	–	–	–	–	–	–	–	–
